Measured values as given in patent publication US20260185163A1, “MEN1 MUTATIONS AND USES THEREOF” (DANA-FARBER CANCER INSTITUTE, INC., priority 2022, published 2026).
Numbering of substitutions follows the chain as printed.

Key:
[1] = target: T1, M327I-mutant Menin (Homo sapiens, UniProt O00255, M322I); experiment: competitive MLL1 fluorescence polarization (FP) binding assay, displacement of MLL1 peptide
T1 construct: made in house; host or cells: E. coli BL21-DE3 Rosetta
T1 sequence (O00255 1-615 isoform O00255-1 M327I): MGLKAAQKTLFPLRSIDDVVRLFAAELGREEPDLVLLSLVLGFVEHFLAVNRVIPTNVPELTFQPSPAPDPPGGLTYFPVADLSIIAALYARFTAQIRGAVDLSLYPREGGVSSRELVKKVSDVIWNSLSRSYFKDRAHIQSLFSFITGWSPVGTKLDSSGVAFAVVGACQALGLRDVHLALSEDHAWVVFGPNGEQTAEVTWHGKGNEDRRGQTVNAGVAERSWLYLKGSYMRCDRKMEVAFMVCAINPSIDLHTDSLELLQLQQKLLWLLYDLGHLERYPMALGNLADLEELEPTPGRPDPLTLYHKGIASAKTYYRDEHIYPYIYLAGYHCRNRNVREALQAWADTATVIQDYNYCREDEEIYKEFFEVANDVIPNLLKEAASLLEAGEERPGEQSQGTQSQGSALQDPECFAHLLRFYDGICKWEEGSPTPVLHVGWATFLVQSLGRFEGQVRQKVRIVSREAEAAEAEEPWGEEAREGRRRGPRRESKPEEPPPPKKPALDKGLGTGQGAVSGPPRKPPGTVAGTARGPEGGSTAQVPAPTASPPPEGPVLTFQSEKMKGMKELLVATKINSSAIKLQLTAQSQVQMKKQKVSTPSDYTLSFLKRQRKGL
Description: (§1) The following peptides were synthesized by GenScript: N-terminal FITC-conjugated MLL14-43(C-A) peptide probe ([…]) with a C-A modification that improves binding to Menin^19, MLL14-43(C-A) ([…]) and MLL14-43(WT) ([…]). N-terminally FITC-labelled and unmodified MLL2 peptides (MLL2(15-48) […]) were synthesized at Genscript. To derive the FITC-MLL14-43(C-A) peptide Kd. FITC-conjugated MLL14-43(C-A) peptide probe at final concentration of 1 nM was mixed with increasing concentration of purified StrepII-Avi-TEV-Menin (5 μM final top concentration, 2-fold, 23-point dilution and a buffer control) in an assay buffer (50 mM Tris pH 7.5, 200 mM NaCl, 0.1% Pluronic F-68 solution (Sigma)) in 384-well microplates at 15 μL assay volume (Corning, 4514) and incubated for 30 min at room temperature (RT). For all assays change in fluorescence polarization was monitored using a PHERAstar FS microplate reader (BMG Labtech). The FITC-conjugated MLL14-43(C-A) peptide Kd was obtained from a fit in GraphPad Prism 9 using one site total model and averaged from three independent runs with three replicates (n=3, FIG. 8). In competitive titration experiments Menin proteins (1 nM WT, 1 nM M327I or 3 nM for T349M) and 1 nM FITC-conjugated MLL14-43(C-A) peptide probe were incubated in an assay buffer for 30 min. SNDX-5613 was then dispensed to 384-well microplate (Corning, 4514) containing 15 μL of the assay mix using D300e Digital Dispenser (HP) and normalized to 1% DMSO followed by 90 min incubation. The fluorescence polarization was monitored by PHERAstar FS microplate reader (BMG Labtech). The MLL14-43(WT) and MLL14-43(C-A) peptide titrations were performed by addition of 7.5 μL of 2-fold 23-point serial dilution into 7.5 μL of assay mix with the final concentrations of 1 nM FITC-conjugated MLL4-43 peptide probe, 1 nM WT Menin or 1 nM Menin M327I or 3 nM Menin T349M in assay buffer. The fluorescence polarization was monitored by PHERAstar FS microplate reader (BMG Labtech). For analysis of the competitive titration experiments the last 10 cycles of the data were averaged to obtain technical replicates. Data from three independent replicates (n=3) was plotted and IC50 values estimated using variable slope equation in GraphPad Prism 9. The calculation of Ki values was performed using Ki calculator available at websites.umich.edu/˜shaomengwanglab/software/calc_ki/index.html^23.

[2] = target: T2, T349M-mutant Menin (Homo sapiens, UniProt O00255, T344M); experiment: as above
T2 construct: made in house; host or cells: E. coli BL21-DE3 Rosetta
T2 sequence (O00255 1-615 isoform O00255-1 T349M): T1 sequence (O00255 1-615 isoform O00255-1 M327I) with I327M, T349M
Description: as §1

Compound | effect of M327I on binding ([1]; M327I mutant Menin) | effect of T349M on binding in the fluorescence polarization assay ([2]; T349M mutant Menin) | increase of IC50-value for MLL-displacement compared to WT Menin ([1]; M327I mutant vs WT Menin) [fold] | reduction in affinity, fluorescence polarization ([1]; MEN1-M327I compared to MEN1-WT) | increase of IC50-value for MLL-displacement compared to WT Menin ([2]; T349M mutant vs WT Menin) [fold]
CNc1nc(NC2CCN(Cc3ccc4c(cc(C#N)n4CC45CC(NC=O)(C4)C5)c3C)CC2)c2cc(CC(F)(F)F)sc2n1 [MI-3454] | severely affected | less affected |  |  | 
CCN(C(=O)c1cc(F)ccc1Oc1cncnc1N1CC2(CCN(C[C@H]3CC[C@H](NS(=O)(=O)CC)CC3)CC2)C1)C(C)C [SNDX-5613, revumenib] |  |  | 51 | over 50 fold | 111
